Experimental data published in PubChem BioAssay (NCI).
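48-hour exposure; five concentrations; linearly interpolated endpoints. TGI denotes the concentration required for complete inhibition of growth.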

What was measured:
Assay in all cases: NCI anticancer screen, dose series, 48 h
COLO 205 colon = system: COLO 205 colon
K-562 leukemia = system: K-562 leukemia
KM12 colon = system: KM12 colon
MALME-3M melanoma = system: MALME-3M melanoma
MOLT-4 leukemia = system: MOLT-4 leukemia
SK-MEL-28 melanoma = system: SK-MEL-28 melanoma
SK-OV-3 ovarian = system: SK-OV-3 ovarian
SNB-75 CNS = system: SNB-75 CNS
UACC-257 melanoma = system: UACC-257 melanoma
UO-31 renal = system: UO-31 renal

Compound: COC(=O)C(Cc1c[nH]c2ccccc12)NC(=O)c1ccc(-c2ccc(Cl)cc2Cl)o1 (stereo not given)
- TGI (COLO 205 colon): > 100 µM
- TGI (K-562 leukemia): > 100 µM
- TGI (KM12 colon): > 100 µM
- TGI (MALME-3M melanoma): > 100 µM
- TGI (MOLT-4 leukemia): > 100 µM
- TGI (SK-MEL-28 melanoma): > 100 µM
- TGI (SK-OV-3 ovarian): > 100 µM
- TGI (SNB-75 CNS): > 100 µM
- TGI (UACC-257 melanoma): 99.3 µM
- TGI (UO-31 renal): > 100 µM

Compound: COc1ccc(-c2cc(=O)c3cc(OC)ccc3[nH]2)cc1
- TGI (COLO 205 colon): > 100 µM
- TGI (K-562 leukemia): > 100 µM
- TGI (KM12 colon): > 100 µM
- TGI (MALME-3M melanoma): > 100 µM
- TGI (MOLT-4 leukemia): > 100 µM
- TGI (SK-MEL-28 melanoma): > 100 µM
- TGI (SK-OV-3 ovarian): > 100 µM
- TGI (SNB-75 CNS): > 100 µM
- TGI (UACC-257 melanoma): > 100 µM
- TGI (UO-31 renal): > 100 µM

Compound: COc1ccc(/C(Cl)=C(\C=N/O)c2ccc(OC)c(OC)c2)cc1OC
- TGI (COLO 205 colon): > 100 µM
- TGI (K-562 leukemia): > 100 µM
- TGI (KM12 colon): > 100 µM
- TGI (MALME-3M melanoma): > 100 µM
- TGI (MOLT-4 leukemia): > 100 µM
- TGI (SK-MEL-28 melanoma): > 100 µM
- TGI (SK-OV-3 ovarian): > 100 µM
- TGI (SNB-75 CNS): > 100 µM
- TGI (UACC-257 melanoma): > 100 µM
- TGI (UO-31 renal): > 100 µM

Compound: CC(=O)OCC1OC(Nn2c(=O)[nH]c3ccccc3c2=O)C(OC(C)=O)C(OC(C)=O)C1OC(C)=O (stereo not given)
- TGI (COLO 205 colon): > 100 µM
- TGI (K-562 leukemia): > 100 µM
- TGI (KM12 colon): > 100 µM
- TGI (MALME-3M melanoma): > 100 µM
- TGI (MOLT-4 leukemia): > 100 µM
- TGI (SK-MEL-28 melanoma): > 100 µM
- TGI (SK-OV-3 ovarian): > 100 µM
- TGI (SNB-75 CNS): > 100 µM
- TGI (UACC-257 melanoma): > 100 µM
- TGI (UO-31 renal): > 100 µM

Compound: Cc1ccc(S(=O)(=O)Oc2nc3ccccc3nc2OS(=O)(=O)c2ccc(C)cc2)cc1
- TGI (COLO 205 colon): > 100 µM
- TGI (K-562 leukemia): > 100 µM
- TGI (KM12 colon): > 100 µM
- TGI (MALME-3M melanoma): 35 µM
- TGI (MOLT-4 leukemia): > 100 µM
- TGI (SK-MEL-28 melanoma): > 100 µM
- TGI (SK-OV-3 ovarian): > 100 µM
- TGI (SNB-75 CNS): > 100 µM
- TGI (UACC-257 melanoma): > 100 µM
- TGI (UO-31 renal): > 100 µM
